Experimental data as given in paper PMC4190524, “The Flux of Select NSAIDs through Silicone Membranes from Mineral Oil” (Pharmaceutics, 2014).
Where two headings read alike, the source gives them in different places.

How the values were obtained:
[1] = Calculated log partition coefficients; type: physicochemical; conditions: data from Wenkers and Lippold 1999; for log KMO:1.0: mineral oil:acidic water (pH 1.0) partition coefficient, calculated from log KOCT:1.0 − log KOCT:MO; for log KOCT:MO: octanol:mineral oil partition coefficient, calculated from log KOCT:1.0 − log KMO:1.0
[2] = Calculated solubilities in octanol, pH 7.4 buffer and acidic water; type: physicochemical; conditions: data from Wenkers and Lippold 1999; for log SOCT: solubility in octanol, calculated from log KOCT:MO and log SMO; for log S7.4: solubility in pH 7.4 phosphate buffer, calculated from log SOCT − log KOCT:7.4; for log S1.0: solubility in acidic water (pH 1.0), calculated from log SMO − log KMO:1.0
Description: Experimental solubility in mineral oil from Wenkers and Lippold was converted to units of mM from mg/dL. The values of log S7.4 were calculated from log SOCT − log KOCT:7.4, the values of log SOCT were calculated from log KOCT:MO + log SMO, and the values of log S1.0 were calculated from log SMO − log KMO:1.0.

[3] = Stability in pH 7.1 phosphate buffer (receptor phase); type: physicochemical; conditions: measured after 24 h as salicylic acid
Description: Molar extinction coefficients for the compounds in pH 7.1 phosphate buffer, the receptor phase, were determined experimentally. Each compound was initially dissolved in a small volume of acetonitrile (except Diflunisal, which was dissolved in ethanol). These solutions were diluted further with the buffer solution to concentrations that would produce accurate UV absorptions. A plot of absorbance versus concentration produced the slope in units of M^−1. There was only one instance of a major variation in this procedure. […] Thus, the molar extinction coefficient and the concentrations measured after 24 h were that of salicylic acid.

[4] = parameters: method as in Wenkers and Lippold 1999 [6]; conditions: log maximum flux through human skin in vivo from mineral oil; ref Wenkers and Lippold 1999 [6]; cited from earlier work
[5] = Maximum flux through silicone membranes from mineral oil (Franz diffusion cells)
[6] = pH 7.1
[7] = log maximum flux through silicone membrane from mineral oil suspension, 32 °C, pH 7.1 phosphate buffer receptor phase, measured directly

| Compound | log KMO:1.0 [1] | log KOCT:MO [1] | log SOCT [2] | log S7.4 [2] | log JMPMO [5, 7] | log S1.0 [2] | log JMPMO ([5]; first procedure, 3 h collection intervals) | log JMPMO ([5]; repeat diffusion cell experiment with 2 h collection intervals, receptor phases ≤20% saturation) | log JMPMO [6] | stability in phosphate buffer [3] | log JMHMO [4] |
| --- | --- | --- | --- | --- | --- | --- | --- | --- | --- | --- | --- |
| CC(=O)Oc1ccccc1C(=O)O [Aspirin] | −2.02 | 3.96 | 3.14 mM | 5.18 mM | −1.18 µmol cm^−2 h^−1 |  |  |  |  | readily hydrolyzed to salicylic acid and acetic acid | −1.72 µmol cm^−2 h^−1 |
| O=C(O)c1cc(-c2ccc(F)cc2F)ccc1O [Diflunisal] | 0.88 | 3.36 | 2.19 mM | 1.61 mM | −1.69 µmol cm^−2 h^−1 | −2.05 mM |  |  |  |  | −2.44 µmol cm^−2 h^−1 |
| CC(C)Cc1ccc(C(C)C(=O)O)cc1 (centres unmarked) [Ibuprofen] | 3.06 | 1.15 | 3.24 mM | 2.02 mM | 0.34 µmol cm^−2 h^−1 | −0.97 mM |  |  |  |  | −0.25 µmol cm^−2 h^−1 |
| COc1ccc2cc(CCC(C)=O)ccc2c1 [Nabumetone] | 2.72 | 0.57 | 1.76 mM | −1.12 mM | −1.53 µmol cm^−2 h^−1 | −1.53 mM | −1.55 | −1.53 |  |  | −1.10 µmol cm^−2 h^−1 |
| COc1ccc2cc([C@H](C)C(=O)O)ccc2c1 [Naproxen] |  |  |  |  |  |  |  |  | −1.46 µmol cm^−2 h^−1 |  |  |

Continued, in another order:

| log KMO:1.0 [1] | log KOCT:MO [1] | log SOCT [2] | log S7.4 [2] | log JMPMO [5, 7] | log S1.0 [2] | log JMPMO ([5]; first procedure, 3 h collection intervals) | log JMPMO ([5]; repeat diffusion cell experiment with 2 h collection intervals, receptor phases ≤20% saturation) | log JMPMO [6] | Compound | stability in phosphate buffer [3] | log JMHMO [4] |
| --- | --- | --- | --- | --- | --- | --- | --- | --- | --- | --- | --- |
| 1.41 | 2.91 | 1.89 mM | −0.09 mM | −1.91 µmol cm^−2 h^−1 | −2.43 mM |  |  |  | O=C(O)Cc1ccccc1Nc1c(Cl)cccc1Cl [Diclofenac] |  | −2.89 µmol cm^−2 h^−1 |
| 2.74 | 1.93 | 2.46 mM | 0.31 mM | −0.60 µmol cm^−2 h^−1 | −2.21 mM |  |  |  | O=C(O)c1ccccc1Nc1cccc(C(F)(F)F)c1 [Flufenamic Acid] |  | −1.86 µmol cm^−2 h^−1 |
|  |  |  |  | −1.18 µmol cm^−2 h^−1 |  |  |  |  | CC(C(=O)O)c1cccc(C(=O)c2ccccc2)c1 (centres unmarked) [Ketoprofen] |  |  |
| 0.20 | 1.49 | 0.75 mM | 0.95 mM | −2.08 µmol cm^−2 h^−1 | −0.94 mM |  |  |  | CN1C(C(=O)Nc2ccccn2)=C(O)c2ccccc2S1(=O)=O [Piroxicam] |  | −2.40 µmol cm^−2 h^−1 |
